This note sets out measurements from patent publication US20260355196A1, “INHIBITORS AND DEGRADERS OF PIP4K PROTEIN” (Larkspur Biosciences, Inc., priority 2023, published 2026).

Structures are written as SMILES. Where only a bound is given, the exact number is not on record here.

For this experiment, the target named is T1, PIP4K2C (Homo sapiens, UniProt Q8TBX8).
T1 sequence (Q8TBX8 1-421): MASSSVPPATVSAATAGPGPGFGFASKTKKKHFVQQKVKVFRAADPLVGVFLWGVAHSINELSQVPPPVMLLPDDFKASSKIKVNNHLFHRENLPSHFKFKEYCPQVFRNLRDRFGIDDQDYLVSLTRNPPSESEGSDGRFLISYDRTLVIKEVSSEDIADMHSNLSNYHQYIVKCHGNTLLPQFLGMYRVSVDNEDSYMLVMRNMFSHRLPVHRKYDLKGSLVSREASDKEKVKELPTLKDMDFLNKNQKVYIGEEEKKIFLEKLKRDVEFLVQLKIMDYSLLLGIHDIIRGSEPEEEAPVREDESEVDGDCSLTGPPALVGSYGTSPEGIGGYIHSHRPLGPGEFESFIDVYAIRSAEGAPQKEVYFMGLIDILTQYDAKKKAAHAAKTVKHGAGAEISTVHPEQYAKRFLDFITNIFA
Nature of the experiment: Enzyme Binding Assay (KINOMEscan): active site-directed competition binding to an immobilized ligand. More on the design: purchased Eurofins DiscoverX, San Diego, CA 87-0007-1094. As to conditions: 11-point dose response, duplicate, top concentration 5 micromolar; read-out: Pip4k2c Kd: IC50. The method in brief:
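IC50 values come from Hill-equation fits (Levenberg-Marquardt) to 11-point duplicate titrations starting at 5 micromolar. Read-out is competition of compound with an immobilized ligand for the kinase active site.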
For `CNC(=O)[C@H]1CC[C@H](Nc2ncc(Cl)c(-c3cccc(-c4ccc[nH]c4=O)c3)n2)CC1` [Compound 155, trans-(1r,4r)-4-((5-chloro-4-(3-(2-oxo-1,2-dihydropyridin-3-yl)phenyl)pyrimidin-2-yl)amino)-N-methylcyclohexane-1-carboxamide], the half-maximal inhibitory concentration (IC50) was under 0.5 µM.
With `CNC(=O)[C@H]1C[C@@H](Nc2ncc(Cl)c(-c3cccc(-c4ccc[nH]c4=O)c3)n2)C1` [Compound 156, cis-3-((5-chloro-4-(3-(2-oxo-1,2-dihydropyridin-3-yl)phenyl)pyrimidin-2-yl)amino)-N-methylcyclobutane-1-carboxamide], the half-inhibitory concentration (IC50) is under 0.5 µM.
The value for `CC(=O)N1CCC[C@H](Nc2ncc(Cl)c(-c3cccc(-c4cccc(=O)[nH]4)c3)n2)C1` [Compound 157, (S)-6-(3-(2-((1-acetylpiperidin-3-yl)amino)-5-chloropyrimidin-4-yl)phenyl)pyridin-2(1H)-one] was under 0.5 µM.
As to `CC(=O)N[C@H]1CC[C@H](Nc2ncc(Cl)c(-c3cccc(-c4ccc(F)cc4)n3)n2)CC1` [Compound 158, trans-N-((1r,4r)-4-((5-chloro-4-(6-(4-fluorophenyl)pyridin-2-yl)pyrimidin-2-yl)amino)cyclohexyl)acetamide], the 50% inhibitory concentration (IC50) is under 0.5 µM.
With `CNC(=O)[C@H]1CC[C@H](Nc2ncc(Cl)c(-c3cccc(-c4ccc(F)cc4)n3)n2)CC1` [Compound 159, trans-(1r,4r)-4-((5-chloro-4-(6-(4-fluorophenyl)pyridin-2-yl)pyrimidin-2-yl)amino)-N-methylcyclohexane-1-carboxamide], the IC50 was under 0.5 µM.
Turning to `CNC(=O)[C@H]1CC[C@H](Nc2ncc(Cl)c(-c3ccnc(-c4ccc(F)cc4)c3)n2)CC1` [Compound 160, trans-(1r,4r)-4-((5-chloro-4-(2-(4-fluorophenyl)pyridin-4-yl)pyrimidin-2-yl)amino)-N-methylcyclohexane-1-carboxamide], the concentration for half-maximal inhibition (IC50) was under 0.5 µM.
For `CNC(=O)[C@H]1C[C@@H](Nc2ncc(Cl)c(-c3cc(C4CC4)[nH]n3)n2)C1` [Compound 161, cis-3-((5-chloro-4-(5-cyclopropyl-1H-pyrazol-3-yl)pyrimidin-2-yl)amino)-N-methylcyclobutane-1-carboxamide], the IC50 was under 0.5 µM.
The result for `CNC(=O)[C@H]1C[C@H](Nc2ncc(Cl)c(-c3cc(C4CC4)[nH]n3)n2)C1` [Compound 162, trans-(1r,3r)-3-((5-chloro-4-(5-cyclopropyl-1H-pyrazol-3-yl)pyrimidin-2-yl)amino)-N-methylcyclobutane-1-carboxamide] reads under 0.5 µM.
The value for `CNC(=O)[C@H]1CC[C@@H](Nc2ncc(Cl)c(-c3cnn(-c4ccc(=O)[nH]c4)c3)n2)CC1` [Compound 163, cis-(1s,4s)-4-((5-chloro-4-(1-(6-oxo-1,6-dihydropyridin-3-yl)-1H-pyrazol-4-yl)pyrimidin-2-yl)amino)-N-methylcyclohexane-1-carboxamide] was 0.5 to 1 µM; that for `CNC(=O)[C@H]1C[C@@H](Nc2ncc(Cl)c(-c3cnn(-c4ccc(=O)[nH]c4)c3)n2)C1` [Compound 164, cis-3-((5-chloro-4-(1-(6-oxo-1,6-dihydropyridin-3-yl)-1H-pyrazol-4-yl)pyrimidin-2-yl)amino)-N-methylcyclobutane-1-carboxamide] was under 0.5 µM; that for `CNC(=O)[C@H]1CC[C@H](Nc2ncc(Cl)c(-c3cnn(-c4cc[nH]c(=O)c4)c3)n2)CC1` [Compound 165, trans-(1r,4r)-4-((5-chloro-4-(1-(2-oxo-1,2-dihydropyridin-4-yl)-1H-pyrazol-4-yl)pyrimidin-2-yl)amino)-N-methylcyclohexane-1-carboxamide] was 0.5 to 1 µM.
On to `CNC(=O)[C@H]1C[C@H](Nc2ncc(Cl)c(-c3cnn(-c4ccc[nH]c4=O)c3)n2)C1` [Compound 166, trans-(1r,3r)-3-((5-chloro-4-(1-(2-oxo-1,2-dihydropyridin-3-yl)-1H-pyrazol-4-yl)pyrimidin-2-yl)amino)-N-methylcyclobutane-1-carboxamide], for which the IC50 was under 0.5 µM.
The result for `CNC(=O)[C@H]1CC[C@@H](Nc2ncc(Cl)c(-c3cnn(-c4cccc(=O)[nH]4)c3)n2)CC1` [Compound 167, cis-(1s,4s)-4-((5-chloro-4-(1-(6-oxo-1,6-dihydropyridin-2-yl)-1H-pyrazol-4-yl)pyrimidin-2-yl)amino)-N-methylcyclohexane-1-carboxamide] reads 0.5 to 1 µM; that for `CC(=O)N1CCC(Nc2ncc(F)c(-c3cccc(C4COC4)c3)n2)CC1` [Compound 169, 1-(4-((5-fluoro-4-(3-(oxetan-3-yl)phenyl)pyrimidin-2-yl)amino)piperidin-1-yl)ethan-1-one], under 0.5 µM.
For the molecule `CC(=O)N1CCC(Nc2ncc(F)c(-c3cccc(C4(O)COC4)c3)n2)CC1` [Compound 171, 1-(4-((5-fluoro-4-(3-(3-hydroxyoxetan-3-yl)phenyl)pyrimidin-2-yl)amino)piperidin-1-yl)ethan-1-one], the IC50 was under 0.5 µM.
The result for `CC(=O)N1CCC(Nc2ncc(F)c(-c3ccnc(C(C)(C)O)c3)n2)CC1` [Compound 172, 1-(4-((5-fluoro-4-(2-(2-hydroxypropan-2-yl)pyridin-4-yl)pyrimidin-2-yl)amino)piperidin-1-yl)ethan-1-one] reads under 0.5 µM; that for `CC(=O)N[C@H]1CC[C@H](Nc2ncc(F)c(-c3cccc(C4CCCN(C(C)=O)C4)c3)n2)CC1` (stereo partly drawn) [Compound 174, trans-N-(4-((4-(3-(1-acetylpiperidin-3-yl)phenyl)-5-fluoropyrimidin-2-yl)amino)cyclohexyl)acetamide], under 0.5 µM.
On to `CC(=O)N[C@H]1CC[C@H](Nc2ncc(F)c(-c3cccc(C4COC4)c3)n2)CC1` [Compound 175, N-(trans-4-((5-fluoro-4-(3-(oxetan-3-yl)phenyl)pyrimidin-2-yl)amino)cyclohexyl)acetamide], for which the 50% inhibitory concentration (IC50) was under 0.5 µM.
The value for `CC(=O)N[C@H]1CC[C@H](Nc2ncc(F)c(-c3cccc(C4(O)COC4)c3)n2)CC1` [Compound 176, N-(trans-4-((5-fluoro-4-(3-(3-hydroxyoxetan-3-yl)phenyl)pyrimidin-2-yl)amino)cyclohexyl)acetamide] was under 0.5 µM.
The result for `CC(=O)N1CCC(Nc2ncc(F)c(-c3cccc(C4CCCN(C(C)=O)C4)c3)n2)CC1` (stereo not drawn) [Compound 179, 1-(4-((4-(3-(1-acetylpiperidin-3-yl)phenyl)-5-fluoropyrimidin-2-yl)amino)piperidin-1-yl)ethan-1-one] reads under 0.5 µM; that for `NC(=O)[C@H]1CC[C@H](Nc2ncc(F)c(-c3cccc(C4COC4)c3)n2)CC1` [Compound 180, trans-4-((5-fluoro-4-(3-(oxetan-3-yl)phenyl)pyrimidin-2-yl)amino)cyclohexane-1-carboxamide], under 0.5 µM.
As to `NC(=O)[C@H]1CC[C@H](Nc2ncc(F)c(-c3cccc(C4(O)COC4)c3)n2)CC1` [Compound 181, trans-4-((5-fluoro-4-(3-(3-hydroxyoxetan-3-yl)phenyl)pyrimidin-2-yl)amino)cyclohexane-1-carboxamide], the half-inhibitory concentration (IC50) is under 0.5 µM.
The value for `CC(=O)N[C@H]1CC[C@H](Nc2ncc(F)c(N3CCOCC3)n2)CC1` [Compound 182, trans-N-(4-((5-fluoro-4-morpholinopyrimidin-2-yl)amino)cyclohexyl)acetamide] was 1 to 5 µM.
The value for `CC(=O)N1CCC(Nc2ncc(F)c(-c3cccc(-c4cc[nH]c(=O)c4)c3)n2)CC1` [Compound 187, 4-(3-(2-((1-acetylpiperidin-4-yl)amino)-5-fluoropyrimidin-4-yl)phenyl)pyridin-2(1H)-one] was under 0.5 µM; that for `CC(=O)N[C@H]1CC[C@H](Nc2ncc(F)c(-c3cccc(-c4cc[nH]c(=O)c4)c3)n2)CC1` [Compound 188, trans-N-(4-((5-fluoro-4-(3-(2-oxo-1,2-dihydropyridin-4-yl)phenyl)pyrimidin-2-yl)amino)cyclohexyl)acetamide] was under 0.5 µM; that for `CC(=O)N1CCC(Nc2ncc(F)c(N3CCCC(n4ccccc4=O)C3)n2)CC1` (stereo not drawn) [Compound 189, 1-(1-(2-((1-acetylpiperidin-4-yl)amino)-5-fluoropyrimidin-4-yl)piperidin-3-yl)pyridin-2(1H)-one] was 1 to 5 µM.
Consider `CC(=O)N[C@H]1CC[C@H](Nc2ncc(Cl)c(-c3cc(C4CC4)[nH]n3)n2)CC1` [Compound 190, trans-N-((1r,4r)-4-((5-chloro-4-(5-cyclopropyl-1H-pyrazol-3-yl)pyrimidin-2-yl)amino)cyclohexyl)acetamide], for which the half-inhibitory concentration (IC50) was under 0.5 µM.
The value for `CNC(=O)[C@H]1CC[C@@H](Nc2ncc(Cl)c(-c3cc(C4CC4)[nH]n3)n2)CC1` [Compound 191, cis-(1s,4s)-4-((5-chloro-4-(5-cyclopropyl-1H-pyrazol-3-yl)pyrimidin-2-yl)amino)-N-methylcyclohexane-1-carboxamide] was under 0.5 µM; that for `CC(=O)N1CCC[C@H](Nc2ncc(Cl)c(-c3cc(C4CC4)[nH]n3)n2)C1` [Compound 192, (S)-1-(3-((5-chloro-4-(5-cyclopropyl-1H-pyrazol-3-yl)pyrimidin-2-yl)amino)piperidin-1-yl)ethan-1-one] was under 0.5 µM; that for `CNC(=O)[C@H]1C[C@@H](Nc2ncc(Cl)c(-c3cnn(-c4ccc[nH]c4=O)c3)n2)C1` [Compound 193, cis-3-((5-chloro-4-(1-(2-oxo-1,2-dihydropyridin-3-yl)-1H-pyrazol-4-yl)pyrimidin-2-yl)amino)-N-methylcyclobutane-1-carboxamide] was under 0.5 µM.
